Data taken from patent US6762181B1, “Aminomethylpyrrolidine derivatives having aromatic substituents” (Daiichi Pharmaceutical Co., Ltd., priority 1999, dated 2004).
In brackets after ≈: the same amount, converted by molar mass. Where two headings read alike, the source gives them in different places.

Columns and labels:
Test in all cases: Antibacterial activity (MIC), Japan Society of Chemotherapy standard method
Assay type in all cases: cell-based
Str. pneumoniae J24 = system: Str. pneumoniae J24
Protocol: (§1) Antibacterial activities of the compounds of the invention were measured in accordance with the standard method specified by the Japan Society of Chemotherapy, with the results shown in the following table as MIC values (μg/ml). In this connection, MIC values of levofloxacin (LVFX), ciprofloxacin (CPFX) and 5-amino-7-[3-(R)-[1-(S)-aminoethyl]pyrrolidin-1-yl]-6-fluoro-1-[2-(S)-fluoro-1-(R)-cyclopropyl]-8-methyl-1,4-dihydro-4-oxoquinoline-3-carboxylic acid (control drug 1) described in WO 9623782 are also shown for the sake of comparison with the MIC values of the compounds of the invention.

E. faecalis ATCC 19433 = system: E. faecalis ATCC 19433
Protocol: as §1

Pr. Vulgaris O8601 = system: Pr. Vulgaris O8601
Protocol: as §1

S. flexneri 2A 5503 = system: S. flexneri 2A 5503
Protocol: as §1

S. aureus 870307 = system: S. aureus 870307
Protocol: as §1

S. epidermidis 56500 = system: S. epidermidis 56500
Protocol: as §1

Ps. aeruginosa 32104 = system: Ps. aeruginosa 32104
Protocol: as §1

S. aureus FDA 209P = system: S. aureus FDA 209P
Protocol: as §1

X. maltophilia IID 1275 = system: X. maltophilia IID 1275
Protocol: as §1

Ps. aeruginosa 32121 = system: Ps. aeruginosa 32121
Protocol: as §1

K. pneumoniae TYPE 1 = system: K. pneumoniae TYPE 1
Protocol: as §1

Str. pyrogenes G-36 = system: Str. pyrogenes G-36
Protocol: as §1

Ser. marcescens 10100 = system: Ser. marcescens 10100
Protocol: as §1

E. coli NIHJ = system: E. coli NIHJ
Protocol: as §1

[1] = Streptococcus pneumoniae, J24, Str. pneumoniae J24, read-out: MIC
[2] = Enterococcus faecalis, ATCC19433, E. faecalis ATCC 19433, read-out: MIC
[3] = Proteus vulgaris, read-out: MIC
[4] = Shigella flexneri, 2A5503, S. flexneri 2A 5503, read-out: MIC
[5] = Staphylococcus aureus, 870307, S. aureus 870307, read-out: MIC
[6] = Staphylococcus epidermidis, read-out: MIC
[7] = Pseudomonas aeruginosa, 32104, Ps. aeruginosa 32104, read-out: MIC
[8] = Staphylococcus aureus, FDA209P, read-out: MIC
[9] = Stenotrophomonas maltophilia, IID1275, X. maltophilia IID 1275, read-out: MIC
[10] = Pseudomonas aeruginosa, 32121, Ps. aeruginosa 32121, read-out: MIC
[11] = Klebsiella pneumoniae, TYPE1, K. pneumoniae TYPE 1, read-out: MIC
[12] = Serratia marcescens, 10100, Ser. marcescens 10100, read-out: MIC
[13] = Escherichia coli, read-out: MIC

In the case of C[C@H]1COc2c(N3CC[C@@H](C(N)c4ccccc4)C3)c(F)cc3c(=O)c(C(=O)O)cn1c23 (stereo partly drawn) [Example 4, 10-[3-(R)-(1-Amino-1-Phenylmethyl)-1-Pyrrolidinyl]-9-Fluoro-2,3-Dihydro-3-(S)-Methyl-7-Oxo-7H-Pyrido [1,2,3,-de] [1,4] Benzoxazine-6-Carboxylic Acid], the MIC (Str. pneumoniae J24; Str. pneumoniae J24) is reported as “≦0.003 μg/ml”, the MIC (E. faecalis ATCC 19433; E. faecalis ATCC 19433) is reported as 0.006 µg/mL (≈ 0.0137 µM) and the MIC (Pr. Vulgaris O8601) is reported as 0.013 µg/mL (≈ 0.0297 µM). For the same compound, the MIC (S. flexneri 2A 5503; S. flexneri 2A 5503) was “≦0.003 μg/ml”, the MIC (S. aureus 870307; S. aureus 870307) was “≦0.003 μg/ml” and the MIC (S. epidermidis 56500) was “≦0.003 μg/ml”. The MIC (Ps. aeruginosa 32104; Ps. aeruginosa 32104) was 0.1 µg/mL (≈ 0.229 µM), the MIC (S. aureus FDA 209P) was “≦0.003 μg/ml” and the MIC (X. maltophilia IID 1275; X. maltophilia IID 1275) was 0.05 µg/mL (≈ 0.114 µM). The MIC (Ps. aeruginosa 32121; Ps. aeruginosa 32121) was 0.05 µg/mL (≈ 0.114 µM), the MIC (K. pneumoniae TYPE 1; K. pneumoniae TYPE 1) was 0.025 µg/mL (≈ 0.0571 µM) and the MIC (Str. pyrogenes G-36) was “≦0.003 μg/ml”. For the same compound, the MIC (Ser. marcescens 10100; Ser. marcescens 10100) was 0.025 µg/mL (≈ 0.0571 µM) and the MIC (E. coli NIHJ) was “≦0.003 μg/ml”.
For Cc1c(N2CC[C@@H](C(N)c3ccccc3)C2)c(F)c(N)c2c(=O)c(C(=O)O)cn([C@@H]3C[C@@H]3F)c12 (stereo partly drawn) [Example 5, 5-Amino-7-[3-(R)-(1-Amino-1-Phenylmethyl)-1-Pyrrolidinyl]-6-Fluoro-1-[2-(S)-Fluoro-1-(R)-Cyclopropyl]-1,4-Dihydro-8-Methyl-4-Oxoquinoline-3-Carboxylic Acid], the MIC (Str. pneumoniae J24; [1]) was ≤ 0.003 µg/mL, the MIC (E. faecalis ATCC 19433; [2]) was 0.006 µg/mL (≈ 0.0128 µM) and the MIC (Pr. Vulgaris O8601; [3]) was 0.013 µg/mL (≈ 0.0277 µM). For the same compound, the MIC (S. flexneri 2A 5503; [4]) was ≤ 0.003 µg/mL, the MIC (S. aureus 870307; [5]) was ≤ 0.003 µg/mL and the MIC (S. epidermidis 56500; [6]) was ≤ 0.003 µg/mL. The MIC (Ps. aeruginosa 32104; [7]) was 0.1 µg/mL (≈ 0.213 µM), the MIC (S. aureus FDA 209P; [8]) was ≤ 0.003 µg/mL and the MIC (X. maltophilia IID 1275; [9]) was 0.025 µg/mL (≈ 0.0534 µM). The MIC (Ps. aeruginosa 32121; [10]) was 0.025 µg/mL (≈ 0.0534 µM), the MIC (K. pneumoniae TYPE 1; [11]) was 0.013 µg/mL (≈ 0.0277 µM) and the MIC (Str. pyrogenes G-36; read-out: MIC) was ≤ 0.003 µg/mL. The MIC (Ser. marcescens 10100; [12]) was 0.025 µg/mL (≈ 0.0534 µM) and the MIC (E. coli NIHJ; [13]) was ≤ 0.003 µg/mL.
In the case of COc1c(N2CC[C@@H](C(N)c3ccccc3)C2)ccc2c(=O)c(C(=O)O)cn([C@@H]3C[C@@H]3F)c12 (stereo partly drawn) [Example 6, 7-[3-(R)-(1-Amino-1-Phenylmethyl)-1-Pyrrolidinyl]-1-[2-(S)-Fluoro-1-(R)-Cyclopropyl]-1,4-Dihydro-8-Methoxy-4-Oxoquinoline-3-Carboxylic Acid], the MIC (Str. pneumoniae J24; [1]) is reported as ≤ 0.003 µg/mL, the MIC (E. faecalis ATCC 19433; [2]) is reported as 0.025 µg/mL (≈ 0.0554 µM) and the MIC (Pr. Vulgaris O8601; [3]) is reported as 0.1 µg/mL (≈ 0.221 µM). It also gave an MIC (S. flexneri 2A 5503; [4]) of 0.013 µg/mL (≈ 0.0288 µM), an MIC (S. aureus 870307; [5]) of 0.013 µg/mL (≈ 0.0288 µM) and an MIC (S. epidermidis 56500; [6]) of 0.006 µg/mL (≈ 0.0133 µM). For the same compound, the MIC (Ps. aeruginosa 32104; [7]) was 0.2 µg/mL (≈ 0.443 µM), the MIC (S. aureus FDA 209P; [8]) was ≤ 0.003 µg/mL and the MIC (X. maltophilia IID 1275; [9]) was 0.1 µg/mL (≈ 0.221 µM). For the same compound, the MIC (Ps. aeruginosa 32121; [10]) was 0.1 µg/mL (≈ 0.221 µM), the MIC (K. pneumoniae TYPE 1; [11]) was 0.05 µg/mL (≈ 0.111 µM) and the MIC (Str. pyrogenes G-36; read-out: MIC) was ≤ 0.003 µg/mL. For the same compound, the MIC (Ser. marcescens 10100; [12]) was 0.1 µg/mL (≈ 0.221 µM) and the MIC (E. coli NIHJ; [13]) was 0.006 µg/mL (≈ 0.0133 µM).
With COc1ccccc1C(N)[C@@H]1CCN(c2c(F)c(N)c3c(=O)c(C(=O)O)cn([C@@H]4C[C@@H]4F)c3c2F)C1 (stereo partly drawn) [Example 8, 5-Amino-7-[3-(R)-(1-Amino-1-(2-Methoxy) Phenylmethyl)-1-Pyrrolidinyl]-6,8-Difluoro-1-[2-(S)-Fluoro-1-(R)-Cyclopropyl]-1,4-Dihydro-4-Oxoquinoline-3-Carboxylic Acid] the MIC (Str. pneumoniae J24; Str. pneumoniae J24) was “≦0.003 μg/ml”, the MIC (E. faecalis ATCC 19433; E. faecalis ATCC 19433) was 0.025 µg/mL (≈ 0.0498 µM) and the MIC (Pr. Vulgaris O8601) was 0.2 µg/mL (≈ 0.398 µM). The MIC (S. flexneri 2A 5503; S. flexneri 2A 5503) was 0.006 µg/mL (≈ 0.0119 µM), the MIC (S. aureus 870307; S. aureus 870307) was 0.013 µg/mL (≈ 0.0259 µM) and the MIC (S. epidermidis 56500) was “≦0.003 μg/ml”. The MIC (Ps. aeruginosa 32104; Ps. aeruginosa 32104) was 0.2 µg/mL (≈ 0.398 µM), the MIC (S. aureus FDA 209P) was “≦0.003 μg/ml” and the MIC (X. maltophilia IID 1275; X. maltophilia IID 1275) was 0.2 µg/mL (≈ 0.398 µM). The MIC (Ps. aeruginosa 32121; Ps. aeruginosa 32121) was 0.1 µg/mL (≈ 0.199 µM), the MIC (K. pneumoniae TYPE 1; K. pneumoniae TYPE 1) was 0.05 µg/mL (≈ 0.0995 µM) and the MIC (Str. pyrogenes G-36) was “≦0.003 μg/ml”. For the same compound, the MIC (Ser. marcescens 10100; Ser. marcescens 10100) was 0.2 µg/mL (≈ 0.398 µM) and the MIC (E. coli NIHJ) was “≦0.003 μg/ml”.
Nc1c(F)c(N2CC[C@@H](C(N)c3ccc(F)cc3F)C2)c(F)c2c1c(=O)c(C(=O)O)cn2[C@@H]1C[C@@H]1F (stereo partly drawn) [Example 10, 5-Amino-7-[3-(R)-(1Amino-1-(2,4-Difluoro) Phenylmethyl)-1-Pyrrolidinyl]-6,8-Difluoro-1-[2-(S)-Fluoro-1-(R)-Cyclopropyl]-1,4-Dihydro-4-Oxoquinoline-3-Carboxylic Acid] was tested, and the MIC (Str. pneumoniae J24; Str. pneumoniae J24) was “≦0.003 μg/ml”, the MIC (E. faecalis ATCC 19433; E. faecalis ATCC 19433) was 0.025 µg/mL (≈ 0.0492 µM) and the MIC (Pr. Vulgaris O8601) was 0.1 µg/mL (≈ 0.197 µM). The MIC (S. flexneri 2A 5503; S. flexneri 2A 5503) was “≦0.003 μg/ml”, the MIC (S. aureus 870307; S. aureus 870307) was 0.006 µg/mL (≈ 0.0118 µM) and the MIC (S. epidermidis 56500) was “≦0.003 μg/ml”. For the same compound, the MIC (Ps. aeruginosa 32104; Ps. aeruginosa 32104) was 0.2 µg/mL (≈ 0.393 µM), the MIC (S. aureus FDA 209P) was “≦0.003 μg/ml” and the MIC (X. maltophilia IID 1275; X. maltophilia IID 1275) was 0.05 µg/mL (≈ 0.0983 µM). The MIC (Ps. aeruginosa 32121; Ps. aeruginosa 32121) was 0.1 µg/mL (≈ 0.197 µM), the MIC (K. pneumoniae TYPE 1; K. pneumoniae TYPE 1) was 0.013 µg/mL (≈ 0.0256 µM) and the MIC (Str. pyrogenes G-36) was “≦0.003 μg/ml”. For the same compound, the MIC (Ser. marcescens 10100; Ser. marcescens 10100) was 0.1 µg/mL (≈ 0.197 µM) and the MIC (E. coli NIHJ) was “≦0.003 μg/ml”.
